Test results reported in patent US20240279231A1, “MAP4K4 INHIBITORS AND METHODS OF SYNTHESIS AND USE THEREOF” (The Board of Regents of the University of Oklahoma, priority 2021, published 2024).

Legend:
[1] = Solubility in polar solvents; type: physicochemical; settings: compared with DMX-5804
Experimental: (§1) First, we attempted base-catalyzed O-alkylation in a variety of conditions (Table 1). […] We also screened various solvents combined with different bases to get DMX-5804. […] However, DMX-5804 was obtained only in small amounts (5-7%), whereas compound 7 was isolated as the major product (88%). To check the stability of compound 7, we refluxed it in dioxane-HCl for 6 h. […] Also, its HPLC retention time was identical to that of DMX-5804 (data not shown).

[2] = biological target: T1, recombinant MAP4K4 enzyme (Homo sapiens, UniProt O95819); assay: MAP4K4 inhibition assay (cell free, MBP substrate, ADP detection); type: biochemical; settings: for IC50: recombinant MAP4K4, MBP substrate, 48 μM ATP, compounds titrated from 900 nM, read-out: concentration for 50% inhibition of MAP4K4 (IC50)
T1 construct: purchased BioAssay Systems Services (Hayward, CA)
Experimental: MAP4K4 inhibition assay: MAP4K4 assay for IC50 determination was performed using a kit by BioAssay Systems Services (Hayward, CA). Briefly, MAP4K4 in assay buffer (40 ng in 10 μL) was incubated with varying concentrations of test compounds (5 μL in dimethylsulfoxide) for 15 min at 37° C. The compounds were titrated from 900 nM (final reaction concentration) in 3× steps. Compound dilutions were made in assay buffer with 0.036% dimethylsulfoxide. Reactions were initiated by adding 5 μL reaction mix (2.6 μg/μL MBP, 193 μM ATP; final reaction concentration of 13 μg MBP, 48 μM ATP) and run at 37° C. for 20 min. These kinase reactions were stopped with an ADP detection reagent and fluorescence was measured at 530Ex/590Em. IC50 was computed using GraphPad Prism Nonlinear Sigmoidal Dose-Response fitting.
MAP4K4 inhibition assay: The MAP4K4 inhibitory activity of DMX-5804, Ribose-analog 9, and regio-isomer 7 were examined in a cell free assay using recombinant MAP4K4 enzyme and myelin basic protein (MBP) as its substrate.

[3] = Stability on reflux in dioxane-HCl; type: physicochemical; settings: refluxed in dioxane-HCl for 6 h
Experimental: as §1

[4] = Solubility in aqueous medium; type: physicochemical
From the text: In order to shift alkylation to desired phenolic site, we changed reaction conditions to acidic by using boron trifluoride diethyl etherate as a Lewis acid (entries 9-11 of Table 1). […] Hypothesizing that the relatively low separated yields of this reaction are due to the insolubility of phenolic derivative in dichloromethane, we decided to perform this reaction in neat conditions with BF3OEt2. This modification produced satisfactory yields of DMX-5804 (entry 10). Further, we added excess of methylglycol as a solvent as well as a reactant in presence of BF3OEt2 to obtain quantitative yields of DMX-5804 in good time (entry 11). In these acidic conditions, the other regioisomer (pyrimidine alkylated compound 7) was completely absent. Previously, the use of BF3OEt2 for phenolic alkylation has been reported. In addition to the compound DMX-5804, we employed this route for synthesis of ribose- and glucose-conjugated analogs. […]

[5] = mouse infarct model; cited from earlier work
[6] = compared with F1386-0303; cited from earlier work
[7] = tested on: cardiomyocyte; settings: oxidative stress-induced, in vitro and in vivo; cited from earlier work

T1 sequence (O95819 whole entry): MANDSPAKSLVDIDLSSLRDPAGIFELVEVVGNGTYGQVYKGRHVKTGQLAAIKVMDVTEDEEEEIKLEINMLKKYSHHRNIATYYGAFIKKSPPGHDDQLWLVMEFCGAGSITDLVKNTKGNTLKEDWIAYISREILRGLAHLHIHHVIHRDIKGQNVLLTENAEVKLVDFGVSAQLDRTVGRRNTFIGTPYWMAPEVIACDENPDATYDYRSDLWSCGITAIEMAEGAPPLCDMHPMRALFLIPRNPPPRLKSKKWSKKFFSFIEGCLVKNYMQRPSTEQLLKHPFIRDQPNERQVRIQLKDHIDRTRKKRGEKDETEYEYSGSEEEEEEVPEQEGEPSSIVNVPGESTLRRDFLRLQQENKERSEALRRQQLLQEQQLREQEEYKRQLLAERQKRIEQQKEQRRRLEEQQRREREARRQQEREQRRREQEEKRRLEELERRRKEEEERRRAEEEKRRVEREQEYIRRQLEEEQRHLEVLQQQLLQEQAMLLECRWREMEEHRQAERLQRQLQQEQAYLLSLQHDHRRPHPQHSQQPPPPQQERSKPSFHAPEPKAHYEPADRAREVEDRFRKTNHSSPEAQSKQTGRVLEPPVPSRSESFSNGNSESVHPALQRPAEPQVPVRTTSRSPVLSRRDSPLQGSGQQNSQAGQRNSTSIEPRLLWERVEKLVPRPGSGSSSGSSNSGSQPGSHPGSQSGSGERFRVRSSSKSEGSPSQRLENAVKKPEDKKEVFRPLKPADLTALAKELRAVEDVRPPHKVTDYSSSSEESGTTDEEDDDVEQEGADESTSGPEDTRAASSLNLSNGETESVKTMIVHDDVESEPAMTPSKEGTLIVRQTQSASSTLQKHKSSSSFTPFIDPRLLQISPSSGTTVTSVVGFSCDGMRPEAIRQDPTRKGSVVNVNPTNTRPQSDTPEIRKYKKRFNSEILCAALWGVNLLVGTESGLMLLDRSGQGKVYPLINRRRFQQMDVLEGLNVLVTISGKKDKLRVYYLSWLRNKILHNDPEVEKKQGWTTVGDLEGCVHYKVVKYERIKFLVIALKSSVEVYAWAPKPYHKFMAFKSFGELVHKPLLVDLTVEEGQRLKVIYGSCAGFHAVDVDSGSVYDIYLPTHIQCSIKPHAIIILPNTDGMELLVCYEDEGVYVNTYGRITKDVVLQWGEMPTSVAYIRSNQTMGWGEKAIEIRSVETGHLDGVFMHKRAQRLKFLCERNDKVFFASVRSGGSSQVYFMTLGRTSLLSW

Row | solubility in polar solvents [1] | melting point [°C] | stability in acidic conditions [3] | IC50 [2] [nM] | solubility in aqueous medium [4] | SMILES | MAP4K4 inhibitory activity ([2]; concentration range tested (titrated from 900 nM in 3× steps)) | infarct size [5] | bioavailability in vivo [6] | cardiomyocyte death [7]
1 | significantly better than DMX-5804 | 221 to 224 | stable in acidic conditions |  |  | COCCOc1ncnc2c1c(-c1ccc(O)cc1)cn2-c1ccccc1 (single isomer, unassigned) [Compound 7, 4-(4-(2-methoxyethoxy)-7-phenyl-7H-pyrrolo[2,3-d]pyrimidin-5-yl)phenol] | no inhibitory activity in the concentration range tested |  |  | 
2 |  |  |  | 256 |  | O=c1[nH]cnc2c1c(-c1ccc(OC3OC(CO)C(O)C3O)cc1)cn2-c1ccccc1 (stereo not shown) [Compound 9, 5-(4-((3,4-dihydroxy-5-(hydroxymethyl)tetrahydrofuran-2-yl)oxy)phenyl)-7-phenyl-3,7-dihydro-4H-pyrrolo[2,3-d]pyrimidin-4-one] |  |  |  | 
3 |  |  |  | 206 | virtually insoluble | COCCOc1ccc(-c2cn(-c3ccccc3)c3nc[nH]c(=O)c23)cc1 [DMX-5804, 5-(4-(2-methoxyethoxy)phenyl)-7-phenyl-3,7-dihydro-4H-pyrrolo[2,3-d]pyrimidin-4-one] |  | significant reduction of infarct size | better bioavailability in vivo than F1386-0303 | reduces cardiomyocyte death both in vitro and in vivo
